Target: T1, T. maritima CopA (WT CopA) (Thermotoga maritima, UniProt Q9WYF3)
T1 sequence (Q9WYF3 1-726): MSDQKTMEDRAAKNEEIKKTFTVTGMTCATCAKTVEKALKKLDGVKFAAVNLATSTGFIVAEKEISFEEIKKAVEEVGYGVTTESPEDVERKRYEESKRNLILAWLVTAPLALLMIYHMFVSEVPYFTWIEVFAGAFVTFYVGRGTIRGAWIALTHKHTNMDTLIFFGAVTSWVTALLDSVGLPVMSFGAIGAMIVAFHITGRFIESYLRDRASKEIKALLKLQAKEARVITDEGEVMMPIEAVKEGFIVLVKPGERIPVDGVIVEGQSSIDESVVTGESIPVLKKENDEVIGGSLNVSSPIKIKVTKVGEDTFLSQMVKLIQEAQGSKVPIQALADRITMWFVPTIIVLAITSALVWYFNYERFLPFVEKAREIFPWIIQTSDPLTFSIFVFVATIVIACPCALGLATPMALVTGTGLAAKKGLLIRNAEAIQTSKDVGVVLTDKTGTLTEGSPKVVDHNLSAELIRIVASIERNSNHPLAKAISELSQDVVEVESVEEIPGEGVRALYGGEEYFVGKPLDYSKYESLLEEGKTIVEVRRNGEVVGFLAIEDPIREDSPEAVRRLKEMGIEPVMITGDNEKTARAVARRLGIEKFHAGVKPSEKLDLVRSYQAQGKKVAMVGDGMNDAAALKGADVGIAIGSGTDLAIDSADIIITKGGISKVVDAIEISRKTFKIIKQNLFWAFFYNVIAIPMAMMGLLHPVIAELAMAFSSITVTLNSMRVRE
Test: phosphoenzyme
Assay type: binding

## O=P(O)(O)O [Pi]
  Kd: 3.3 µM

From publication PMC2504886 (The Journal of Biological Chemistry, 2008)
